This is an account of results in patent US20070092551A1, “Therapeutic agent” (TAKARA BIO INC., priority 2003, published 2007).

The structures appear in SMILES notation.

The assay has as its target T1, fusion protein of an yeast GAL4 DNA-binding domain and a human PPARγ ligand-binding site (Homo sapiens, UniProt P37231).
T1 construct: expressed in transfected cells; host or cells: CV-1 cells
T1 sequence (P37231 204-505): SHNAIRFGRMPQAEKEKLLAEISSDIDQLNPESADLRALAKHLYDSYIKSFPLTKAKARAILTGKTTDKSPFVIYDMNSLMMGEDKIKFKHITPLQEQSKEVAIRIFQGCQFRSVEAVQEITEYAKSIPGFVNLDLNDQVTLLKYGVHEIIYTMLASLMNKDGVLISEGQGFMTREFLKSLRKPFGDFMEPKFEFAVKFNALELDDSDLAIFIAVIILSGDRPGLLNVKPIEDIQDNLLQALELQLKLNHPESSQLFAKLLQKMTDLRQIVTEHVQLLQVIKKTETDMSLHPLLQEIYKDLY
In words: PPARγ activation reporter assay in CV-1 cells. The class given is cell-based. The conditions noted are these: test compound 10 μM, pFA-CMV (PPARγ), 24 hours. On the procedure: The activation ability for PPARγ was determined by a reporter assay using a fusion protein of an yeast GAL4 DNA-binding domain and a human PPARγ ligand-binding site.
A plasmid (pGAL4/GL3-Promoter) was prepared by repeating five times insertion of a binding site (UASg) of GAL4 into a multicloning site of a pGL3-Promoter vector (Promega). In addition, a ligand-binding site (amino acid sequence 204 to 505) of the PPARγ gene was cloned from a human liver cDNA library (manufactured by TAKARA BIO INC.) by a polymerase chain reaction, and the ligand-binding site was inserted into a multicloning site of a pFA-CMV plasmid vector ([…]) to give pFA-CMV (PPARγ).
Escherichia coli JM-109 strain was transformed with each of the two kinds of the plasmids obtained by the above-mentioned procedures, and pFA-CMV and pRL-TK (Promega) according to a conventional method. Each of the Escherichia coli cells was cultured with shaking at 37° C. for 18 hours in an LB medium containing 100 μg/mL ampicillin. Thereafter, the plasmids of each were purified according to the procedure manual of QIAfilter Plasmid midi Kit (QIAGEN).
CV-1 cells were seeded in a 24-well plate so as to have a density of 4×10^4 cells per well. Thereafter, the cells were cultured in a Dulbecco's modified Eagle's medium (manufactured by Sigma, D5796) containing 10% fetal bovine serine (manufactured by Bio Whittaker) for 24 hours under the conditions of 37° C. and 5% CO2. Thereafter, in accordance with the procedure manual of LipofectAmine 2000 (Invitrogen), the gene transfer was carried out into the CV-1 cells with 200 ng of pFA-CMV (PPARγ) or pFA-CMV, 400 ng of pGAL4/GL3-promoter, and 200 ng of pRL-TK per well, and thereafter the cells were cultured for 24 hours under the conditions of 37° C. and 5% CO2. Thereafter, the medium was exchanged with a Dulbecco's modified Eagle's medium to which a test compound dissolved in dimethyl sulfoxide was previously added so as to have a final concentration of 10 μM. Thereafter, the cells were cultured for additional 24 hours. In addition, there were set a group with addition of dimethyl sulfoxide in place of a test compound as a negative control, and a group with addition of troglytazone (manufactured by Calbiochem) so as to have a final concentration of 3 μM as a positive control. The cells were washed with a phosphate buffered saline, and 5× PassiveLysisBuffer (Promega) which was previously diluted in 5-folds with distilled water was added thereto in an amount of 100 μL per well. The mixture was shaken at room temperature for 15 minutes to lyse cells. Twenty microliters of this lysed solution was applied in accordance with the procedure manual of Dual Luciferase Assay System (Promega), and a fluorescent luciferase emission intensity and a Renilla mullerei luciferase emission intensity were measured using Mithras-LB940 (BERTHOLD TECHNOLOGIES GmbH). The enhancing action for transcriptional activation of each test compound was shown as a relative value obtained by calculating a ratio of the fluorescent luciferase emission intensity to the Renilla mullerei luciferase emission intensity, wherein the value of the group with addition of the negative control is defined as 1.
Background: Reporter assays use an easily measured gene product as a stand-in for the process of interest.
On to `COc1ccc(C(=O)/C=C/c2ccc(O)cc2)c(O)c1CC=C(C)C` [4-Hydroxyderricin, 4,2′-Dihydroxy-3′-prenyl-4′-methoxychalcone], for which the “enhancing action for transcriptional activation (PPARγ)” value is “no enhancing action for transcriptional activation was found”.
The result for `COc1ccc(C(=O)/C=C/c2ccc(O)cc2)c(O)c1C/C=C(\C)CCC=C(C)C` [Xanthoangelol F, 4,2′-Dihydroxy-3′-geranyl-4′-methoxychalcone] reads “no enhancing action for transcriptional activation was found”; that for `COc1ccc(C(=O)/C=C/c2ccc(O)cc2)c2c1CC(O)C(C)(C)O2` (stereo not shown) [Xanthoangelol H], “no enhancing action for transcriptional activation was found”.
With `CC(C)=CCC/C(C)=C/Cc1c(O)ccc(C(=O)/C=C/c2ccc(O)cc2)c1O` [Xanthoangelol, 4,2′,4′-Trihydroxy-3′-geranylchalcone], the “enhancing action for transcriptional activation (PPARγ)” value was “no enhancing action for transcriptional activation was found”.
